Measurements as given in ChEMBL document CHEMBL4739717, “Methods of treating cartilage disorders through inhibition of clk and dyrk” (2020).

Columns and labels:
[1] = Induction of chondrogenesis in human MSC assessed as maximum activity at 300 nM incubated for 6 days by rhodamine B and Nile red staining based imaging analysis relative to control; format: functional; conditions: BMMSC, 144 h, time 6 day
[2] = Effect on Wnt signaling pathway in human SW480 cells harbouring TCF/LEF luciferase reporter gene and SP5-Luc reporter gene incubated for 36 to 48 hrs by luminescence assay; format: cell-based
[3] = biological target: Dual specificity tyrosine-phosphorylation-regulated kinase 1A (Homo sapiens, UniProt Q13627); test: Inhibition of recombinant DYRK1A (unknown origin) using Ser/Thr 18 peptide as substrate incubated for 1 hr in presence of ATP by FRET assay
[4] = Induction of chondrogenesis in human MSC assessed as incubated for 6 days by rhodamine B and Nile red staining based imaging analysis; format: functional; conditions: bmmsc

Row | EC50 [2] [nM] | EC50 [3] [nM] | EC50 [4] [nM] | SMILES | Emax at 0.3 µM [1] [%]
1 | 21 | 5 | 300 | CN(C)CCNc1cc(F)cc(-c2cncc3[nH]c(-c4n[nH]c5ncc(-c6cccnc6)cc45)nc23)c1 | 129
2 | 18.9 | 52 | 10 | Cc1ccncc1-c1ccc2[nH]nc(-c3nc4c(-c5ccsc5)nccc4[nH]3)c2c1 | 156
3 | 197 | 31 | 30 | Nc1cncc(-c2cnc3[nH]nc(-c4cc5c(-c6ccccc6F)nccc5[nH]4)c3c2)c1 | 86
4 | 82.2 | 15 | 100 | CN(C)Cc1cncc(-c2cc3c(-c4nc5c(-c6cccc(F)c6)cccc5[nH]4)n[nH]c3cn2)c1 | 311
5 | 11 | 11 | 300 | CCC(=O)Nc1cncc(-c2cnc3[nH]nc(-c4nc5c(-c6ccc(F)cc6)cncc5[nH]4)c3c2)c1 | 143
6 | 191 | 21 | 300 | Cc1ccncc1-c1ccc2[nH]nc(-c3cc4ccncc4[nH]3)c2c1 | 161
7 | > 10000 | 3 | 30 | CCC(=O)Nc1cncc(-c2cc3c(-c4cc5c(N6CCN(C)CC6)nccc5[nH]4)n[nH]c3cn2)c1 | 70
8 | 3550 | 43 | 300 | c1csc(-c2ccnc3[nH]c(-c4n[nH]c5ccc(-c6cncc(OC7CCNCC7)c6)nc45)cc23)c1 | 51.4
9 | 202 | 25 |  | O=C(Nc1cncc(-c2cnc3[nH]nc(-c4cc5c(-c6cccnc6)cccc5[nH]4)c3c2)c1)C1CCC1 | 41.3
10 | 11 | 75 | 10 | O=C(Nc1cncc(-c2cnc3[nH]nc(-c4nc5c(-c6cccc(F)c6)cncc5[nH]4)c3c2)c1)C1CC1 | 148
11 | 3870 | 10 |  | CN1CCN(c2ccnc3[nH]c(-c4n[nH]c5ccc(-c6cncc(NC(=O)CC(C)(C)C)c6)nc45)cc23)CC1 | 30.3
12 | 4 |  | 30 | CN1CCN(c2ccc(NC(=O)c3n[nH]c4ccc(-c5cncc(CN6CCC(F)(F)C6)c5)cc34)cn2)CC1 | 80.9
13 | 70 | 12 | 30 | CC(C)(C)C(=O)Nc1cncc(-c2cnc3[nH]nc(-c4nc5c(-c6ccoc6)cncc5[nH]4)c3c2)c1 | 144
14 | 59 |  | 300 | Cc1cncc(NC(=O)c2n[nH]c3ccc(-c4cncc(CN5CCCCC5)c4)cc23)c1 | 68.3
15 | 35 | 76 | 30 | c1cncc(-c2ccc3[nH]nc(-c4nc5c(-c6cccnc6)cncc5[nH]4)c3c2)c1 | 159
16 | 643 | 35 |  | COc1cncc(-c2ccc3[nH]nc(-c4cc5c(-c6ccoc6)nccc5[nH]4)c3c2)c1 | 35.5
17 | 3060 | 12 | 300 | CN(C)c1cncc(-c2cc3c(-c4cc5cnccc5[nH]4)n[nH]c3cn2)c1 | 101
18 | 7 |  | 30 | CC1CCN(Cc2cncc(-c3ccc4[nH]nc(C(=O)Nc5cccnc5)c4c3)c2)CC1 | 94.4
19 | 1510 | 28 | 300 | c1cncc(-c2ccc3[nH]nc(-c4nc5c(-c6cccnc6)ccnc5[nH]4)c3n2)c1 | 94.6
20 | > 10000 | 72 |  | c1cncc(-c2ccnc3[nH]c(-c4n[nH]c5cnc(-c6cncc(CN7CCCC7)c6)cc45)cc23)c1 | 16.7
21 | 16.7 | 98 | 30 | CC(C)(C)C(=O)Nc1cncc(-c2ccc3[nH]nc(-c4nc5c(-c6ccc(F)s6)ccnc5[nH]4)c3c2)c1 | 120
22 | 605 | 2 |  | CC(C)(C)CC(=O)Nc1cncc(-c2cnc3[nH]nc(-c4cc5cnccc5[nH]4)c3c2)c1 | 7.07
23 | 224 | 5 | 10 | Nc1cncc(-c2cc3c(-c4cc5c(-c6ccccc6F)nccc5[nH]4)n[nH]c3cn2)c1 | 117
24 | 35.3 | 30 |  | CC(C)(C)C(=O)Nc1cncc(-c2cc3c(-c4nc5c(-c6ccc(F)s6)nccc5[nH]4)n[nH]c3cn2)c1 | 40.9
25 | > 10000 | 15 |  | c1cncc(-c2ccnc3[nH]c(-c4n[nH]c5ncc(-c6cncc(CN7CCCCC7)c6)cc45)cc23)c1 | 43.9
26 | 4160 | 15 | 10 | CN1CCN(c2nccc3[nH]c(-c4n[nH]c5ccc(-c6cncc(CN7CCCCC7)c6)nc45)cc23)CC1 | 70.8
27 | > 10000 | 20 |  | CC(C)Nc1cncc(-c2ccc3[nH]nc(-c4cc5c(-c6cccnc6)ccnc5[nH]4)c3c2)c1 | 45.5

Row | EC50 [2] [nM] | EC50 [3] [nM] | EC50 [4] [nM] | SMILES | Emax at 0.3 µM [1] [%]
28 | > 10000 | 30 | 10 | CC(C)C(=O)Nc1cncc(-c2ccc3[nH]nc(-c4nc5c(-c6ccccc6F)cncc5[nH]4)c3n2)c1 | 181
29 | 3850 | 30 |  | FC1(F)CCN(Cc2cncc(-c3ccc4[nH]nc(-c5cc6c(-c7cccnc7)cncc6[nH]5)c4n3)c2)C1 | 23.3
30 | 30.2 | 16 | 100 | Fc1cccc(-c2ccnc3[nH]c(-c4n[nH]c5ncc(-c6cn[nH]c6)cc45)nc23)c1 | 110
31 | 2250 | 17 |  | Cc1ccncc1-c1cnc2[nH]nc(-c3cc4c(-c5cccnc5)cncc4[nH]3)c2c1 | 17.4
32 | 131 | 34 |  | Nc1cncc(-c2ccc3[nH]nc(-c4cc5c(-c6ccccc6F)ccnc5[nH]4)c3c2)c1 | 23.5
33 | 7690 | 15 |  | CC(C)C(=O)Nc1cncc(-c2ccc3[nH]nc(-c4cc5c(N6CCN(C)CC6)nccc5[nH]4)c3c2)c1 | 21
34 | 8 | 70 |  | CCCC(=O)Nc1cncc(-c2cnc3[nH]nc(-c4nc5c(-c6ccccc6F)cncc5[nH]4)c3c2)c1 | 82.8
35 | 1510 | 13 |  | FC1(F)CCN(Cc2cncc(-c3cnc4[nH]nc(-c5cc6c(-c7ccncc7)cncc6[nH]5)c4c3)c2)C1 | 36.5
36 | > 10000 | 35 |  | CN1CCN(c2ccnc3[nH]c(-c4n[nH]c5ncc(-c6cn[nH]c6)cc45)cc23)CC1 | 20.1
37 | 2940 | 93 |  | CN(C)Cc1cncc(-c2ccc3[nH]nc(-c4cc5c(-c6cccc(F)c6)nccc5[nH]4)c3c2)c1 | 42
38 | 3410 | 70 |  | CC(C)Nc1cncc(-c2cnc3[nH]nc(-c4cc5c(N6CCCCC6)nccc5[nH]4)c3c2)c1 | 33.6
39 | 605 | 23 |  | CC(C)CC(=O)Nc1cncc(-c2ccc3[nH]nc(-c4cc5c(-c6ccccc6F)nccc5[nH]4)c3n2)c1 | 36.3
40 | 960 | 2 |  | CCC(=O)Nc1cncc(-c2cnc3[nH]nc(-c4cc5cnccc5[nH]4)c3c2)c1 | 16.9
41 | > 10000 | 7 |  | c1cncc(-c2cncc3[nH]c(-c4n[nH]c5ncc(-c6cncnc6)cc45)cc23)c1 | 24.1
42 | 3850 | 31 |  | O=C(Nc1cncc(-c2cnc3[nH]nc(-c4cc5c(N6CCCCC6)nccc5[nH]4)c3c2)c1)C1CC1 | 42.5
43 | 1060 | 27 |  | CN(C)Cc1cncc(-c2ccc3[nH]nc(-c4cc5c(-c6ccncc6)cncc5[nH]4)c3c2)c1 | 17.8
44 | 3480 | 12 |  | CN1CCN(c2cncc3[nH]c(-c4n[nH]c5ccc(-c6cncc(NC(=O)CC(C)(C)C)c6)cc45)cc23)CC1 | 30.8
45 | 1840 | 24 |  | c1ncc(-c2ccc3[nH]nc(-c4cc5c(N6CCCCC6)cncc5[nH]4)c3c2)cc1CN1CCCC1 | 24.7
46 | > 10000 | 25 |  | CN1CCN(c2nccc3[nH]c(-c4n[nH]c5ccc(-c6cncc(NC(=O)CC7CCNCC7)c6)cc45)cc23)CC1 | 42.8
47 | 523 | 10 |  | FC1(F)CCN(Cc2cncc(-c3ccc4[nH]nc(-c5cc6c(-c7cccnc7)ccnc6[nH]5)c4c3)c2)C1 | 20.3
48 | 23.3 | 14 |  | O=C(Nc1cncc(-c2cnc3[nH]nc(-c4nc5c(-c6cccnc6)cncc5[nH]4)c3c2)c1)C1CC1 | 86.3
49 | > 10000 | 100 |  | c1cncc(-c2ccnc3[nH]c(-c4n[nH]c5cnc(-c6cncnc6)cc45)cc23)c1 | 49.6
50 | 1470 | 3 |  | CCCCC(=O)Nc1cncc(-c2cnc3[nH]nc(-c4cc5cnccc5[nH]4)c3c2)c1 | 30.8
51 | 9 | 14 |  | O=C(Nc1cncc(-c2cnc3[nH]nc(-c4nc5c(-c6cccc(F)c6)cncc5[nH]4)c3c2)c1)N1CCOCC1 | 96.8
52 | > 10000 | 71 |  | CN(C)Cc1cncc(-c2cc3c(-c4cc5c(-c6ccncc6)ccnc5[nH]4)n[nH]c3cn2)c1 | 33.4
53 | 5 |  | 100 | COc1ccc(NC(=O)c2n[nH]c3ccc(-c4cncc(CN5CCC(F)(F)C5)c4)cc23)cn1 | 72.2
54 | 1630 | 40 |  | Nc1cncc(-c2cc3c(-c4cc5c(-c6ccccc6F)cncc5[nH]4)n[nH]c3cn2)c1 | 15.5
